{"source": "patent US20120276560A1", "about": "“BIOMARKERS FOR ASSESSING SIALIC ACID DEFICIENCIES” (priority 2010, published 2012)", "key": {"PSA-NCAM [1]": {"test_system": "PSA-NCAM", "test": "Western blot of serum PSA-NCAM (RNL-1 antibody) in HIBM patient on ManNAc", "assay_type": "in vivo, human", "details": "serum of ManNAc self-treated HIBM patient (2 years), FIG. 3 lane 7", "procedure": "(§1) Serum samples from normal individuals, HIBM patients before treatment, patients suffering from myopathy but not HIBM, and a HIBM patient on ManNAc therapy for 2 years were purified to reduce serum proteins. The samples were subjected to SDS PAGE and stained with a monoclonal antibody to NCAM (RNL-1, SantaCruz Biotech, Inc., CA) capable of detecting sialylated and unsialylated forms of NCAM (FIGS. 2 and 3). As a control, serum samples from healthy individuals were prepared as described above and treated with sialidase to remove sialic acid.\n(§2) For Western blotting, serum protein was extracted from 50 ul serum samples using Mem-PER® Eukaryotic Membrane Protein Extraction Reagent Kit (Thermo Scientific), then the hydrophilic (top) layer was cleaned and purified by SDS-PAGE Sample Prep Kit (Thermo Scientific). Final protein concentration was measured by BradfordUltra (Expedeon), and […] protein (15 uL) loaded per lane for electrophoresis separation. […] Primary (RNL-1, SantaCruz Biotech, Inc., CA) and secondary antibodies were applied, and detected using horseradish peroxidase (HRP) chemi-luminescence substrate (FIG. 3). […]\n(§3) For desialylated control sample, serum protein from healthy non-myopathic individuals was treated with Vibrio cholerae neuroaminidase (Sigma) (FIG. 3, lane 8). HIBM patients who were routinely ingesting N-Acetylmannosamine (ManNAc) were analyzed as well (FIG. 3, lane 7)."}, "[2]": {"test_system": "Gne^−/− hGNED176V-Tg mice", "details": "administration in water; Malicdan et al. 2009; cited from earlier work"}, "[3]": {"test_system": "mice homozygous for the M712T Gne mutation", "details": "ManNAc in water to mutant mice; Galeano et al. 2007; cited from earlier work"}, "PSA-NCAM [4]": {"test_system": "PSA-NCAM", "test": "Neuraminidase digestion of normal human serum, Western blot with 123C3 antibody", "assay_type": "biochemical", "details": "37° C. 4 hours, 1 m unit enzyme per 3 μg protein, FIG. 4A lane 2, estimated", "procedure": "Experiments were performed to determine whether PSA-NCAM can be detected in human serum using well-defined mouse monoclonal antibodies raised against human PSA-NCAM (123C3). Human serum was purified by Aurum serum protein kit (Bio-Rad) to remove albumin and IgG which can interfere with SDS-PAGE analysis. Raw serum was diluted 4 times with protein binding buffer (supplied in the kit) and applied to the column. The albumin/IgG depleted serum was eluted by centrifugation at 10,000 g for 20 seconds and protein concentration was determined by modified Lowry assay (Bio-Rad DC protein assay).\nPurified serum was incubated in neuraminidase from Vibrio cholera (Sigma) at 37° C. for 4 hours in order to cleave sialic acid (SA) from serum polysialic acid-glycoproteins, including PSA-NCAM. Digestion was carried out at a concentration of 1 m unit enzyme per 3 μg of protein in 20 mM Tris buffer, pH 5.8. A negative control was included in the experiment under the same condition but without adding the neuraminidase. At the end of incubation, the mixture was cleaned up with micro bio-spin P30 columns (BioRad).\nProteins were analyzed on 10% denaturing Tris-glycine SDS-PAGE gel (Invitrogen) under reducing condition. […]"}, "PSA-NCAM [5]": {"test_system": "PSA-NCAM", "test": "Neuraminidase digestion of normal human serum, Western blot with C-20 polyclonal antibody", "assay_type": "biochemical", "details": "37° C. 4 hours, 0.35 m unit enzyme per μl serum, FIG. 5 lane 5", "procedure": "Experiments were performed to investigate the pattern of serum PSA-NCAM sialylation between normal controls and HIBM patients using a polyclonal antibody raised against human PSA-NCAM. Human serum was purified by a two-steps protocol to enrich PSA-NCAM. Raw sera from both normal human and HIBM patient were extracted by Mem-PER® membrane protein extraction kit (Thermo Scientific) according to the manufacturer's protocol. Serum was first mixed with a detergent and then a second detergent was added to solubilize membrane proteins. After centrifugation at 10,000 g for 3 minutes, the mixture was incubated at 37° C. to separate hydrophobic proteins from hydrophilic proteins through phase partitioning. The top hydrophilic layer was then further purified by SDS-PAGE sample prep kit (Thermo Scientific) to remove detergents and other contaminants that interfere with SDS-PAGE analysis.\nPurified serum was incubated with Vibrio cholera neuraminidase (Sigma) at 37° C. for 4 hours in order to cleave sialic acid (SA) from serum polysialic acid-glycoproteins, including PSA-NCAM. Digestion was carried out at a concentration of 0.35 m unit enzyme per μl of serum. […]\nProteins were analyzed on a 10% Mini-Protean precast gel (BioRad) under reducing condition with 5% 2-mercaptoethanol. Final protein concentration was measured by Bradford Ultra (Expedeon). […]"}, "PSA-NCAM [6]": {"test_system": "PSA-NCAM", "test": "Sialidase treatment of normal human serum, Western blot with RNL-1 antibody", "assay_type": "biochemical", "details": "normal human serum treated with sialidase", "procedure": "as §1, §2, §3"}}, "data": [{"compound": "CC(=O)N[C@@H]1C(O)O[C@H](CO)[C@@H](O)[C@@H]1O", "note": "(some centres unmarked) [ManNAc, N-acetylmannosamine]", "values": [{"measurement": "PSA-NCAM signal at ˜150 kD band on Western blot", "setting": "PSA-NCAM [1]", "result": "improved signal"}, {"measurement": "muscle atrophy and weakness", "setting": "[2]", "result": "reduced or prevented"}, {"measurement": "renal histology (podocyte foot processes)", "setting": "[3]", "result": "improved renal histology"}, {"measurement": "sialylation of brain PSA-NCAM", "setting": "[3]", "result": "increased sialylation of brain PSA-NCAM"}, {"measurement": "sialylation of renal podocalyxin", "setting": "[3]", "result": "increased sialylation of renal podocalyxin"}, {"measurement": "survival", "setting": "[3]", "result": "improved survival"}]}, {"compound": "CC(=O)N[C@H]1[C@H]([C@H](O)[C@H](O)CO)OC(O)(C(=O)O)C[C@@H]1O", "note": "(some centres unmarked) [sialic acid, 5-N-acetylneuraminic acid]", "values": [{"measurement": "muscle atrophy and weakness", "setting": "[2]", "result": "reduced or prevented"}]}, {"compound": "neuraminidase: neuraminidase from Vibrio cholera (Sigma), used to cleave sialic acid from serum glycoproteins", "values": [{"measurement": "reduction of molecular weight of the PSA-NCAM triplet", "setting": "PSA-NCAM [4]", "result": "10-15 kDa"}, {"measurement": "intensity of the 130 kDa and 60 kDa PSA-NCAM bands", "setting": "PSA-NCAM [5]", "result": "significantly reduced in intensity"}, {"measurement": "upper and middle PSA-NCAM bands on Western blot", "setting": "PSA-NCAM [6]", "result": "disappeared"}]}, {"compound": "sialyl-lactose", "values": [{"measurement": "muscle atrophy and weakness", "setting": "[2]", "result": "reduced or prevented"}]}]}
